Laboratory results published in ChEMBL document CHEMBL1153558, “In vitro antifungal susceptibilities of five species of sporothrix” (2008).
In brackets after ≈: the same amount, converted by molar mass. Numbered stars: 1 amine (or outer) side, 2 acyl side, 3 side chain; on linkers, the order of the positions; unused ones are H or OH. Bridge positions count the residues as written; N and C are the ends. Square brackets hold non-standard residues; d marks the D form. Peptide text beside a SMILES is read from it. * marks the point of attachment. hTyr(3S-OH,4S-OH,3'-OSO3H) = N[C@H](C(=O)O)[C@H](O)[C@@H](O)c1ccc(O)c(OS(=O)(=O)O)c1; Orn(4R-OH,5R-OH) = O=C([C@H](C[C@@H](O)[C@@H](O)N[*:3])N[*:1])[*:2]; Pro(3S-OH,4S-Me) = C[C@H]1CN[C@H](C(=O)O)[C@H]1O; X1 = CCCCCOc1ccc(-c2cc(-c3ccc(C(=O)*)cc3)no2)cc1; Gln(3R-OH) = NC(=O)C[C@@H](O)[C@H](N)C(=O)O; Hyp = O=C(O)[C@@H]1C[C@@H](O)CN1

What was measured:
Format in all cases: functional
Sporothrix [1] = assay: Antifungal activity against Sporothrix brasiliensis after 72 hrs by microdilution method
Sporothrix schenckii = assay: Antifungal activity against Sporothrix schenckii after 72 hrs by microdilution method
Sporothrix globosa = assay: Antifungal activity against Sporothrix globosa after 72 hrs by microdilution method
Sporothrix [2] = assay: Antifungal activity against Sporothrix mexicana after 72 hrs by microdilution method
Sporothrix albicans = assay: Antifungal activity against Sporothrix albicans after 72 hrs by microdilution method

SMILES: CCCCCOc1ccc(-c2cc(-c3ccc(C(=O)N[C@H]4C[C@@H](O)[C@@H](O)NC(=O)[C@@H]5[C@@H](O)[C@@H](C)CN5C(=O)[C@H]([C@H](O)CC(N)=O)NC(=O)[C@H]([C@H](O)[C@@H](O)c5ccc(O)c(OS(=O)(=O)O)c5)NC(=O)[C@@H]5C[C@@H](O)CN5C(=O)[C@H]([C@@H](C)O)NC4=O)cc3)no2)cc1 [MICAFUNGIN] (X1-[Orn(4R-OH,5R-OH)]T[Hyp][hTyr(3S-OH,4S-OH,3'-OSO3H)][Gln(3R-OH)][Pro(3S-OH,4S-Me)]; lactam 1-C)
- MIC (Sporothrix [1]): 256 µg/mL (≈ 202 µM)
- MIC50 (Sporothrix [1]): 256 µg/mL (≈ 202 µM)
- MIC90 (Sporothrix [1]): 256 µg/mL (≈ 202 µM)
- MIC (Sporothrix schenckii): 256 µg/mL (≈ 202 µM)
- MIC50 (Sporothrix schenckii): 256 µg/mL (≈ 202 µM)
- MIC90 (Sporothrix schenckii): 256 µg/mL (≈ 202 µM)
- MIC (Sporothrix globosa): 256 µg/mL (≈ 202 µM)
- MIC50 (Sporothrix globosa): 256 µg/mL (≈ 202 µM)
- MIC90 (Sporothrix globosa): 256 µg/mL (≈ 202 µM)
- MIC (Sporothrix [2]): 256 µg/mL (≈ 202 µM)
- MIC (Sporothrix albicans): 256 µg/mL (≈ 202 µM)
- MIC50 (Sporothrix albicans): 256 µg/mL (≈ 202 µM)
- MIC90 (Sporothrix albicans): 256 µg/mL (≈ 202 µM)

SMILES: CCC(C)n1ncn(-c2ccc(N3CCN(c4ccc(OCC5COC(Cn6cncn6)(c6ccc(Cl)cc6Cl)O5)cc4)CC3)cc2)c1=O (stereo not given) [ITRACONAZOLE]
- MIC (Sporothrix [1]): 0.5 µg/mL (≈ 0.709 µM)
- MIC50 (Sporothrix [1]): 0.5 µg/mL (≈ 0.709 µM)
- MIC90 (Sporothrix [1]): 1 µg/mL (≈ 1.42 µM)
- MIC50 (Sporothrix schenckii): 4 µg/mL (≈ 5.67 µM)
- MIC90 (Sporothrix schenckii): 32 µg/mL (≈ 45.3 µM)
- MIC50 (Sporothrix globosa): 32 µg/mL (≈ 45.3 µM)
- MIC90 (Sporothrix globosa): 32 µg/mL (≈ 45.3 µM)
- MIC (Sporothrix [2]): 32 µg/mL (≈ 45.3 µM)
- MIC (Sporothrix albicans): 32 µg/mL (≈ 45.3 µM)
- MIC50 (Sporothrix albicans): 32 µg/mL (≈ 45.3 µM)
- MIC90 (Sporothrix albicans): 32 µg/mL (≈ 45.3 µM)

SMILES: C[C@@H](c1nc(-c2ccc(C#N)cc2)cs1)[C@](O)(Cn1cncn1)c1ccc(F)cc1F [RAVUCONAZOLE]
- MIC50 (Sporothrix [1]): 0.5 µg/mL (≈ 1.14 µM)
- MIC90 (Sporothrix [1]): 1 µg/mL (≈ 2.29 µM)
- MIC50 (Sporothrix schenckii): 8 µg/mL (≈ 18.3 µM)
- MIC90 (Sporothrix schenckii): 16 µg/mL (≈ 36.6 µM)
- MIC50 (Sporothrix globosa): 8 µg/mL (≈ 18.3 µM)
- MIC90 (Sporothrix globosa): 16 µg/mL (≈ 36.6 µM)
- MIC (Sporothrix [2]): 32 µg/mL (≈ 73.1 µM)
- MIC50 (Sporothrix albicans): 16 µg/mL (≈ 36.6 µM)
- MIC90 (Sporothrix albicans): 32 µg/mL (≈ 73.1 µM)

SMILES: Clc1cc(Cl)c2c(c1)CCc1ccccc1C2n1ccnc1 (stereo not given) [EBERCONAZOLE]
- MIC50 (Sporothrix [1]): 0.25 µg/mL (≈ 0.759 µM)
- MIC90 (Sporothrix [1]): 1 µg/mL (≈ 3.04 µM)
- MIC50 (Sporothrix schenckii): 2 µg/mL (≈ 6.07 µM)
- MIC90 (Sporothrix schenckii): 8 µg/mL (≈ 24.3 µM)
- MIC50 (Sporothrix globosa): 2 µg/mL (≈ 6.07 µM)
- MIC90 (Sporothrix globosa): 4 µg/mL (≈ 12.1 µM)
- MIC (Sporothrix [2]): 32 µg/mL (≈ 97.2 µM)
- MIC50 (Sporothrix albicans): 8 µg/mL (≈ 24.3 µM)
- MIC90 (Sporothrix albicans): 16 µg/mL (≈ 48.6 µM)

SMILES: CC(=O)N1CCN(c2ccc(OCC3COC(Cn4ccnc4)(c4ccc(Cl)cc4Cl)O3)cc2)CC1 (stereo not given) [KETOCONAZOLE]
- MIC50 (Sporothrix [1]): 0.125 µg/mL (≈ 0.235 µM)
- MIC90 (Sporothrix [1]): 0.25 µg/mL (≈ 0.47 µM)
- MIC50 (Sporothrix schenckii): 1 µg/mL (≈ 1.88 µM)
- MIC90 (Sporothrix schenckii): 2 µg/mL (≈ 3.76 µM)
- MIC50 (Sporothrix globosa): 1 µg/mL (≈ 1.88 µM)
- MIC90 (Sporothrix globosa): 2 µg/mL (≈ 3.76 µM)
- MIC (Sporothrix [2]): 4 µg/mL (≈ 7.53 µM)
- MIC50 (Sporothrix albicans): 4 µg/mL (≈ 7.53 µM)
- MIC90 (Sporothrix albicans): 4 µg/mL (≈ 7.53 µM)

SMILES: C[C@@H]1[C@H](O)[C@@H](C)/C=C/C=C/C=C/C=C/C=C/C=C/C=C/[C@H](O[C@@H]2O[C@H](C)[C@@H](O)[C@H](N)[C@@H]2O)C[C@@H]2O[C@](O)(C[C@@H](O)C[C@@H](O)[C@H](O)CC[C@@H](O)C[C@@H](O)CC(=O)O[C@H]1C)C[C@H](O)[C@H]2C(=O)O [AMPHOTERICIN B]
- MIC50 (Sporothrix [1]): 2 µg/mL (≈ 2.16 µM)
- MIC90 (Sporothrix [1]): 4 µg/mL (≈ 4.33 µM)
- MIC50 (Sporothrix schenckii): 4 µg/mL (≈ 4.33 µM)
- MIC90 (Sporothrix schenckii): 4 µg/mL (≈ 4.33 µM)
- MIC50 (Sporothrix globosa): 4 µg/mL (≈ 4.33 µM)
- MIC90 (Sporothrix globosa): 8 µg/mL (≈ 8.66 µM)
- MIC (Sporothrix [2]): 16 µg/mL (≈ 17.3 µM)
- MIC50 (Sporothrix albicans): 4 µg/mL (≈ 4.33 µM)
- MIC90 (Sporothrix albicans): 8 µg/mL (≈ 8.66 µM)

SMILES: C[C@@H](c1ncncc1F)[C@](O)(Cn1cncn1)c1ccc(F)cc1F [VORICONAZOLE]
- MIC50 (Sporothrix [1]): 4 µg/mL (≈ 11.5 µM)
- MIC90 (Sporothrix [1]): 8 µg/mL (≈ 22.9 µM)
- MIC50 (Sporothrix schenckii): 32 µg/mL (≈ 91.6 µM)
- MIC90 (Sporothrix schenckii): 32 µg/mL (≈ 91.6 µM)
- MIC50 (Sporothrix globosa): 32 µg/mL (≈ 91.6 µM)
- MIC90 (Sporothrix globosa): 32 µg/mL (≈ 91.6 µM)
- MIC (Sporothrix [2]): 16 µg/mL (≈ 45.8 µM)
- MIC50 (Sporothrix albicans): 8 µg/mL (≈ 22.9 µM)
- MIC90 (Sporothrix albicans): 32 µg/mL (≈ 91.6 µM)

SMILES: CC[C@@H]([C@H](C)O)n1ncn(-c2ccc(N3CCN(c4ccc(OC[C@@H]5CO[C@@](Cn6cncn6)(c6ccc(F)cc6F)C5)cc4)CC3)cc2)c1=O [POSACONAZOLE]
- MIC50 (Sporothrix [1]): 0.5 µg/mL (≈ 0.713 µM)
- MIC90 (Sporothrix [1]): 1 µg/mL (≈ 1.43 µM)
- MIC50 (Sporothrix schenckii): 1 µg/mL (≈ 1.43 µM)
- MIC90 (Sporothrix schenckii): 8 µg/mL (≈ 11.4 µM)
- MIC50 (Sporothrix globosa): 2 µg/mL (≈ 2.85 µM)
- MIC90 (Sporothrix globosa): 8 µg/mL (≈ 11.4 µM)
- MIC (Sporothrix [2]): 32 µg/mL (≈ 45.7 µM)
- MIC50 (Sporothrix albicans): 2 µg/mL (≈ 2.85 µM)
- MIC90 (Sporothrix albicans): 2 µg/mL (≈ 2.85 µM)

SMILES: CN(C/C=C/C#CC(C)(C)C)Cc1cccc2ccccc12 [TERBINAFINE]
- MIC (Sporothrix [1]): 0.06 µg/mL (≈ 0.206 µM)
- MIC50 (Sporothrix [1]): 0.06 µg/mL (≈ 0.206 µM)
- MIC90 (Sporothrix [1]): 0.25 µg/mL (≈ 0.858 µM)
- MIC50 (Sporothrix schenckii): 0.25 µg/mL (≈ 0.858 µM)
- MIC90 (Sporothrix schenckii): 0.5 µg/mL (≈ 1.72 µM)
- MIC50 (Sporothrix globosa): 0.25 µg/mL (≈ 0.858 µM)
- MIC90 (Sporothrix globosa): 0.5 µg/mL (≈ 1.72 µM)
- MIC (Sporothrix [2]): 0.5 µg/mL (≈ 1.72 µM)
- MIC50 (Sporothrix albicans): 0.5 µg/mL (≈ 1.72 µM)
- MIC90 (Sporothrix albicans): 4 µg/mL (≈ 13.7 µM)

SMILES: C[C@@H](n1cnc2cc(Cl)ccc2c1=O)[C@](O)(Cn1cncn1)c1ccc(F)cc1F [ALBACONAZOLE]
- MIC50 (Sporothrix [1]): 1 µg/mL (≈ 2.32 µM)
- MIC90 (Sporothrix [1]): 4 µg/mL (≈ 9.26 µM)
- MIC50 (Sporothrix schenckii): 16 µg/mL (≈ 37.1 µM)
- MIC90 (Sporothrix schenckii): 32 µg/mL (≈ 74.1 µM)
- MIC50 (Sporothrix globosa): 16 µg/mL (≈ 37.1 µM)
- MIC90 (Sporothrix globosa): 16 µg/mL (≈ 37.1 µM)
- MIC (Sporothrix [2]): 32 µg/mL (≈ 74.1 µM)
- MIC50 (Sporothrix albicans): 16 µg/mL (≈ 37.1 µM)
- MIC90 (Sporothrix albicans): 32 µg/mL (≈ 74.1 µM)

SMILES: OC(Cn1cncn1)(Cn1cncn1)c1ccc(F)cc1F [FLUCONAZOLE]
- MIC (Sporothrix [1]): 128 µg/mL (≈ 418 µM)
- MIC50 (Sporothrix [1]): 128 µg/mL (≈ 418 µM)
- MIC90 (Sporothrix [1]): 128 µg/mL (≈ 418 µM)
- MIC (Sporothrix schenckii): 128 µg/mL (≈ 418 µM)
- MIC50 (Sporothrix schenckii): 128 µg/mL (≈ 418 µM)
- MIC90 (Sporothrix schenckii): 128 µg/mL (≈ 418 µM)
- MIC (Sporothrix globosa): 128 µg/mL (≈ 418 µM)
- MIC50 (Sporothrix globosa): 128 µg/mL (≈ 418 µM)
- MIC90 (Sporothrix globosa): 128 µg/mL (≈ 418 µM)
- MIC (Sporothrix [2]): 128 µg/mL (≈ 418 µM)
- MIC (Sporothrix albicans): 128 µg/mL (≈ 418 µM)
- MIC50 (Sporothrix albicans): 128 µg/mL (≈ 418 µM)
- MIC90 (Sporothrix albicans): 128 µg/mL (≈ 418 µM)

SMILES: Nc1nc(=O)[nH]cc1F [FLUCYTOSINE]
- MIC50 (Sporothrix [1]): 16 µg/mL (≈ 124 µM)
- MIC90 (Sporothrix [1]): 128 µg/mL (≈ 992 µM)
- MIC50 (Sporothrix schenckii): 16 µg/mL (≈ 124 µM)
- MIC90 (Sporothrix schenckii): 128 µg/mL (≈ 992 µM)
- MIC50 (Sporothrix globosa): 64 µg/mL (≈ 496 µM)
- MIC90 (Sporothrix globosa): 128 µg/mL (≈ 992 µM)
- MIC (Sporothrix [2]): 128 µg/mL (≈ 992 µM)
- MIC (Sporothrix albicans): 128 µg/mL (≈ 992 µM)
- MIC50 (Sporothrix albicans): 128 µg/mL (≈ 992 µM)
- MIC90 (Sporothrix albicans): 128 µg/mL (≈ 992 µM)
